Results reported in US11987642B2, “Bispecific HER2 and CD3 binding molecules” (MEMORIAL SLOAN KETTERING CANCER CENTER, priority 2014, dated 2024).

Tests used:
SCCHN cell line PCI-30 = assay: Proliferation assay (WST-8), PCI-30; format: cell-based, human
Method: (§1) Cell proliferation was determined using an ELISA plate reader and the WST-8 kit (Dojindo technologies) following the manufacturer's instructions and using the formula: % survival rate=(Sample-Background)/(Negative control-Background). Lapatinib (MSKCC pharmacy) was ground using a mortar and pestle and suspended in DMSO as previously described. To determine statistical significance, the results were analyzed using one-way ANOVA using Prism 6.0.

[1] = tested on: HeLa cervical carcinoma cells; assay: Proliferation assay (WST-8), HeLa; format: cell-based, human
Method: as §1

U2OS osteosarcoma cells = assay: Proliferation assay (WST-8), U2OS; format: cell-based, human
Method: as §1

[2] = tested on: trastuzumab-sensitive breast carcinoma cell line SKBR3; assay: Proliferation assay (WST-8), SKBR3; format: cell-based, human; details: SKBR3, 72 hours, 10 μg/mL antibody; lapatinib positive control
Method: as §1
For cell proliferation assays, 5,000 tumor cells were plated using RPMI-1640 supplemented with 10% FBS in a 96 well plate for 36 hours before being treated with lapatinib or the antibodies at the specified concentrations. […] Lapatinib (Memorial Sloan Kettering Cancer Center pharmacy) was ground using a mortar and pestle and suspended in DMSO as previously described (Chen et al., 2012, Molecular cancer therapeutics 11:660-669). To determine statistical significance, the results were analyzed using one-way ANOVA using Prism 6.0.

[3] = tested on: HeLa cervical carcinoma cells; assay: T cell cytotoxicity assays, HeLa; format: cell-based, human; details: lapatinib pretreatment
Method: The ^51Cr release assay was performed with effector T cells cultured in vitro in the presence of anti-CD3 and anti-CD28 for about 14 days. All target tumor cells were harvested with 2 mM EDTA in PBS, labeled with ^51Cr (Amersham, Arlington Height, IL) at 100 μCi/106 cells at 37° C. for 1 h. 5000 target cells/well were mixed with 50,000 effector cells (E:T=10:1) and BsAb antibodies in 96-well polystyrene round-bottom plates (BD Biosciences) to a final volume of 250 μl/well. The plates were incubated at 37° C. for 4 h. The released ^51Cr in supernatant was counted in a γ-counter (Packed Instrument, Downers Grove, IL). Percentage of specific release was calculated using the formula: (experimental cpm−background cpm)/(total cpm−background cpm)×100%, where cpm represented counts per minute of ^51Cr released. […] EC50 was calculated using SigmaPlot software.

HER2-positive cells = assay: Blocking of HER2-BsAb redirected T cell cytotoxicity; format: cell-based, human; details: pre-incubation with blocking antibody
HCC1954 xenografts = assay: Subcutaneous HCC1954 xenograft with intravenous PBMC; format: in vivo, DKO mice
Method: Subcutaneous xenografts were created with 5×10^6 cells suspended in Matrigel (Corning Corp, Tewksbury MA) and implanted in the flank of DKO mice. Effector peripheral blood mononuclear cell (PBMC) cells were purified from buffy coats purchased from the New York Blood Center. Prior to every experimental procedure, PBMCs were analyzed for their percentage of CD3, CD4, CD8 and CD56 cells to ensure consistency. […] Tumor size was measured using (1) hand-held TM900 scanner (Pieira, Brussels, BE); (2) Calipers; or (3) bioluminescence. Bioluminescence imaging was conducted using the Xenogen In Vivo Imaging System (IVIS) 200 (Caliper LifeSciences). Briefly, mice were injected intravenously with 0.1 mL solution of D-luciferin (Gold Biotechnology; 30 mg/mL stock in PBS). Images were collected 1 to 2 minutes after injection using the following parameters: a 10- to 60-second exposure time, medium binning, and an 8 f/stop. Bioluminescence image analysis was performed using Living Image 2.6 (Caliper LifeSciences).
In two other separate experiments, subcutaneous HER2-positive breast carcinoma cell line HCC1954 was mixed with subcutaneous PBMCs.

| Compound | sensitivity of cells in proliferation assay (SCCHN cell line PCI-30) | sensitivity of cells in proliferation assay [1] | sensitivity of cells in proliferation assay (U2OS osteosarcoma cells) | anti-proliferative effect [2] | effect of pretreatment on sensitivity to HER2-BsAb mediated cytotoxicity [3] | effect of blocking on HER2-BsAb induced T cell cytotoxicity (HER2-positive cells) | tumor growth (HCC1954 xenografts) |
| --- | --- | --- | --- | --- | --- | --- | --- |
| C#Cc1cccc(Nc2ncnc3cc(OCCOC)c(OCCOC)cc23)c1 [erlotinib] | resistant | pan-resistant | minimal sensitivity |  |  |  |  |
| CS(=O)(=O)CCNCc1ccc(-c2ccc3ncnc(Nc4ccc(OCc5cccc(F)c5)c(Cl)c4)c3c2)o1 [lapatinib] | resistant | pan-resistant | minimal sensitivity | strongest inhibition of cell proliferation | increased sensitivity |  |  |
| CCOc1cc2ncc(C#N)c(Nc3ccc(OCc4ccccn4)c(Cl)c3)c2cc1NC(=O)/C=C/CN(C)C [neratinib] | resistant | pan-resistant | minimal sensitivity |  |  |  |  |
| OKT3: CD3 specific blocking mAb |  |  |  |  |  | prevented HER2-BsAb T cell mediated cytotoxicity |  |
| huOKT3: humanized OKT3 CD3-specific antibody |  |  |  |  |  | blocked the ability of HER2-BsAb to induce T cell cytotoxicity | only modest effects |
